Activity calls are given as the source filed them. No cut-off for these calls is given here.
Key:
BXPC-3 = experiment: Synergistic antiproliferative activity against human BXPC-3 cells expressing wild-type BRCA assessed as combination index at 2:1 ratio of compound:JQ1 incubated for 5 days by CCK8 assay; format: functional; settings: time 5 day
PANC-1 [1] = experiment: Induction of apoptosis in human PANC-1 cells at 2 uM incubated for 48 hrs in presence of JQ1 by Annexin V-FITC/PI staining based flow cytometry relative to control; format: functional
PANC-1 [2] = experiment: Anti-invasive activity in human PANC-1 cells at 2 uM in presence of JQ1 incubated for 48 hrs by Matrigel assay relative to control; format: functional
PANC-1 [3] = experiment: Induction of DNA damage in human PANC-1 cells assessed as increase in gamma-H2AX level at 0.6 to 10 uM incubated for 48 hrs by Western blot analysis; format: functional, cell-based; settings: dose 0.6-10 µM
PANC-1 [4] = experiment: Induction of apoptosis in human PANC-1 cells assessed as decrease in Bcl-2 level at 2 uM incubated for 48 hrs in presence of JQ1 by Western blot analysis; format: functional, cell-based
PANC-1 [5] = experiment: Anti-migration activity in human PANC-1 cells at 1 uM in presence of OL incubated for 24 hrs by wound healing assay; format: functional, cell-based
PANC-1 [6] = experiment: Induction of DNA damage in human PANC-1 cells assessed as decrease in RAD51 level at 1 uM in presence of OL by Western blot analysis; format: functional, cell-based
PANC-1 [7] = experiment: Induction of cell cycle arrest in human PANC-1 cells assessed as accumulation at G1 phase at 0.5 uM incubated for 24 hrs by PI staining based flow cytometry (reference value: 51.70 %); format: functional
PANC-1 [8] = experiment: Induction of cell cycle arrest in human PANC-1 cells assessed as accumulation at G2 phase at 1 uM incubated for 24 hrs by PI staining based flow cytometry (reference value: 9.36 %); format: functional
PANC-1 [9] = experiment: Induction of cell cycle arrest in human PANC-1 cells assessed as accumulation at S phase at 0.12 uM incubated for 24 hrs by PI staining based flow cytometry (reference value: 38.94 %); format: functional
PANC-1 [10] = experiment: Induction of cell cycle arrest in human PANC-1 cells assessed as accumulation at G2/M phase at 1 uM incubated for 24 hrs in presence of OL by PI staining based flow cytometry; format: functional
PANC-1 [11] = experiment: Induction of apoptosis in human PANC-1 cells assessed as viable cells at 0.12 uM incubated for 48 hrs by Annexin V-FITC/PI staining based flow cytometry (reference value: 91.64 %); format: functional; settings: read-out: Activity
PANC-1 [12] = experiment: Induction of apoptosis in human PANC-1 cells assessed as late apoptotic cells at 0.12 uM incubated for 48 hrs by Annexin V-FITC/PI staining based flow cytometry (reference value: 3.87 %); format: functional
PANC-1 [13] = experiment: Induction of apoptosis in human PANC-1 cells assessed as necrotic cells at 0.12 uM incubated for 48 hrs by Annexin V-FITC/PI staining based flow cytometry (reference value: 3.09 %); format: functional
PANC-1 [14] = experiment: Induction of apoptosis in human PANC-1 cells assessed as early apoptotic cells at 0.25 uM incubated for 48 hrs by Annexin V-FITC/PI staining based flow cytometry (reference value: 1.41 %); format: functional
PANC-1 [15] = experiment: Induction of apoptosis in human PANC-1 cells assessed as late apoptotic cells at 0.25 uM incubated for 48 hrs by Annexin V-FITC/PI staining based flow cytometry (reference value: 3.87 %); format: functional
PANC-1 [16] = experiment: Induction of apoptosis in human PANC-1 cells assessed as necrotic cells at 0.5 uM incubated for 48 hrs by Annexin V-FITC/PI staining based flow cytometry (reference value: 3.09 %); format: functional
PANC-1 [17] = experiment: Induction of apoptosis in human PANC-1 cells assessed as late apoptotic cells at 1 uM incubated for 48 hrs by Annexin V-FITC/PI staining based flow cytometry (reference value: 3.87 %); format: functional
PANC-1 [18] = experiment: Induction of apoptosis in human PANC-1 cells assessed as viable cells at 1 uM incubated for 48 hrs in presence of OL by Annexin V-FITC/PI staining based flow cytometry (reference value: 91.64 %); format: functional; settings: read-out: Activity
PANC-1 [19] = experiment: Induction of apoptosis in human PANC-1 cells assessed as early apoptotic cells at 1 uM incubated for 48 hrs in presence of OL by Annexin V-FITC/PI staining based flow cytometry (reference value: 1.41 %); format: functional
PANC-1 [20] = experiment: Antitumor activity against human PANC-1 cells xenografted in BALB/c mouse assessed as reduction in tumor growth at 20 mg/kg, ip for 4 weeks administered for 5 days consecutively and 2 days without treatment on every week in presence of OL; format: functional, organism-based
PANC-1 [21] = experiment: Antitumor activity against human PANC-1 cells xenografted in BALB/c mouse assessed as inhibition of tumor volume at 20 mg/kg, ip for 4 weeks administered for 5 days consecutively and 2 days without treatment on every week in presence of OL; format: functional, organism-based
PANC-1 [22] = experiment: Antitumor activity against human PANC-1 cells xenografted in BALB/c mouse at 20 mg/kg, ip for 4 weeks administered for 5 days consecutively and 2 days without treatment on every week in presence of OL relative to control; format: functional; settings: PANC-1, 672 h, read-out: TGI
[23] = Toxicity in BALB/c mouse xenografted with human PANC-1 cells assessed as animal morbidity at 20 mg/kg, ip for 4 weeks administered for 5 days consecutively and 2 days without treatment on every week; format: organism-based; settings: in vivo, 672 h
[24] = Toxicity in BALB/c mouse xenografted with human PANC-1 cells assessed as animal mortality at 20 mg/kg, ip for 4 weeks administered for 5 days consecutively and 2 days without treatment on every week; format: organism-based; settings: in vivo, 672 h
[25] = Toxicity in BALB/c mouse xenografted with human PANC-1 cells assessed as body weight loss at 20 mg/kg, ip for 4 weeks administered for 5 days consecutively and 2 days without treatment on every week in presence of OL; format: organism-based; settings: in vivo, 672 h
[26] = Toxicity in BALB/c mouse xenografted with human PANC-1 cells assessed as pathological changes in heart at 20 mg/kg, ip for 4 weeks administered for 5 days consecutively and 2 days without treatment on every week by H and E staining based analysis; format: organism-based; settings: in vivo, 672 h
[27] = Toxicity in BALB/c mouse xenografted with human PANC-1 cells assessed as pathological changes in heart at 20 mg/kg, ip for 4 weeks administered for 5 days consecutively and 2 days without treatment on every week in presence of OL by H and E staining based analysis; format: organism-based; settings: in vivo, 672 h
[28] = Toxicity in BALB/c mouse xenografted with human PANC-1 cells assessed as pathological changes in spleen at 20 mg/kg, ip for 4 weeks administered for 5 days consecutively and 2 days without treatment on every week in presence of OL by H and E staining based analysis; format: organism-based; settings: in vivo, 672 h
[29] = Toxicity in BALB/c mouse xenografted with human PANC-1 cells assessed as pathological changes in kidney at 20 mg/kg, ip for 4 weeks administered for 5 days consecutively and 2 days without treatment on every week by H and E staining based analysis; format: organism-based; settings: in vivo, 672 h
[30] = Toxicity in BALB/c mouse xenografted with human PANC-1 cells assessed as pathological changes in kidney at 20 mg/kg, ip for 4 weeks administered for 5 days consecutively and 2 days without treatment on every week in presence of OL by H and E staining based analysis; format: organism-based; settings: in vivo, 672 h

## O=C(c1cc(Cc2n[nH]c(=O)c3ccccc23)ccc1F)N1CCN(C(=O)C2CC2)CC1 [OLAPARIB]
BXPC-3
  CI: <1
PANC-1 [1]
  Activity: 26.9%

## O=C1CCC(N2C(=O)c3cccc(NC(=O)CNCCCCCCCCCCC(=O)N4CCN(C(=O)c5cc(Cc6n[nH]c(=O)c7ccccc67)ccc5F)CC4)c3C2=O)C(=O)N1 (stereo unspecified)
PANC-1 [2]
  Activity: 12.4%
PANC-1 [3]
  Activity: Active
PANC-1 [4]
  Activity: Active

## Cc1sc2c(c1C)C(c1ccc(Cl)cc1)=N[C@@H](CC(=O)OC(C)(C)C)c1nnc(C)n1-2
PANC-1 [5]
  Activity: Active
PANC-1 [6]
  Activity: Active
PANC-1 [7]
  Activity: 53.78%
PANC-1 [8]
  Activity: 10.75%
PANC-1 [9]
  Activity: 40.51%
PANC-1 [10]
  Activity: Active; Only A Slight Increase Observed
PANC-1 [11]
  viability at 0.12 µM: 90.2%
PANC-1 [12]
  Activity: 3.99%
PANC-1 [13]
  Activity: 2.94%
PANC-1 [14]
  Activity: 4.08%
PANC-1 [15]
  Activity: 4.07%
PANC-1 [16]
  Activity: 3.56%
PANC-1 [17]
  Activity: 9.46%
PANC-1 [18]
  viability at 1 µM: 68.3%
PANC-1 [19]
  Activity: 5.44%
PANC-1 [20]
  Activity: Active
PANC-1 [21]
  inhibition: Active
PANC-1 [22]
  inhibition in vivo at 20 mg/kg: 80.7%
[23]
  Activity: Non-toxic
[24]
  Activity: Non-toxic
[25]
  Activity: Toxic
[26]
  Activity: Non-toxic
[27]
  Activity: Non-toxic
[28]
  Activity: Non-toxic
[29]
  Activity: Non-toxic
[30]
  Activity: Non-toxic

Reference: ChEMBL document CHEMBL6096630, “Enhancing therapeutic efficacy in homologous recombination-proficient pancreatic cancer via the combination of PARP1-PROTAC and a BRD4 inhibitor” (Bioorg Med Chem, 2024)
